{
  "source": "PubChem BioAssay AID1963864",
  "about": "(Molecular Pharmacology Branch, DTP, NCI, 2024)",
  "system": "KRAS PDC multicell spheroid viability",
  "assay": "Anticancer human tumor 521955-158-R6-J3-PDC patient-derived pancreatic carcinoma cell line growth inhibition [KRAS2]",
  "settings": "for IC50: curve of first compound; for viability, T/C: stronger effect = lower value",
  "summary_of_the_method": "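Combination screen of spheroid viability in tumor-cell co-cultures with endothelial (HUVEC) and mesenchymal stem cell stroma. Each agent was tested in half-log dilutions, topping at clinical Cmax or at 10 microM without a known Cmax.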",
  "data": [
    {"compound": "CC1(C)CCC(CN2CCN(c3ccc(C(=O)NS(=O)(=O)c4ccc(NCC5CCOCC5)c([N+](=O)[O-])c4)c(Oc4cnc5[nH]ccc5c4)c3)CC2)=C(c2ccc(Cl)cc2)C1", "note": "+ COc1cc2nc(C)nc(NC(C)c3cc(N)cc(C(F)(F)F)c3)c2cc1OC1CCOC1;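 further: drug exposure lasted seven days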;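 on viability, T/C: 100% = DMSO vehicle wells and lower means fewer viable cells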", "values": [
      {"measurement": "IC50", "setting": "second compound 0.1 µM", "result": 8.21, "unit": "µM"},
      {"measurement": "IC50", "setting": "second compound 0.316 µM", "result": 8.72, "unit": "µM"},
      {"measurement": "IC50", "setting": "second compound 1 µM", "result": 6.08, "unit": "µM"},
      {"measurement": "IC50", "setting": "second compound 3.16 µM", "result": 2.81, "unit": "µM"},
      {"measurement": "IC50", "setting": "second compound 10 µM", "result": "< 0.0316", "unit": "µM"},
      {"measurement": "viability, T/C", "setting": "second compound 0.1 µM, first compound 0.0316 µM", "result": 103, "unit": "%"},
      {"measurement": "viability, T/C", "setting": "second compound 0.1 µM, first compound 0.1 µM", "result": 100, "unit": "%"},
      {"measurement": "viability, T/C", "setting": "second compound 0.1 µM, first compound 0.316 µM", "result": 91.6, "unit": "%"},
      {"measurement": "viability, T/C", "setting": "second compound 0.1 µM, first compound 1 µM", "result": 107, "unit": "%"},
      {"measurement": "viability, T/C", "setting": "second compound 0.1 µM, first compound 3.16 µM", "result": 77.8, "unit": "%"},
      {"measurement": "viability, T/C", "setting": "second compound 0.1 µM, first compound 10 µM", "result": 44.3, "unit": "%"},
      {"measurement": "viability, T/C", "setting": "second compound 0.316 µM, first compound 0.0316 µM", "result": 90.8, "unit": "%"},
      {"measurement": "viability, T/C", "setting": "second compound 0.316 µM, first compound 0.1 µM", "result": 102, "unit": "%"},
      {"measurement": "viability, T/C", "setting": "second compound 0.316 µM, first compound 0.316 µM", "result": 95.7, "unit": "%"},
      {"measurement": "viability, T/C", "setting": "second compound 0.316 µM, first compound 1 µM", "result": 81.7, "unit": "%"},
      {"measurement": "viability, T/C", "setting": "second compound 0.316 µM, first compound 3.16 µM", "result": 70.5, "unit": "%"},
      {"measurement": "viability, T/C", "setting": "second compound 0.316 µM, first compound 10 µM", "result": 47.1, "unit": "%"},
      {"measurement": "viability, T/C", "setting": "second compound 1 µM, first compound 0.0316 µM", "result": 90.1, "unit": "%"},
      {"measurement": "viability, T/C", "setting": "second compound 1 µM, first compound 0.1 µM", "result": 99.3, "unit": "%"},
      {"measurement": "viability, T/C", "setting": "second compound 1 µM, first compound 0.316 µM", "result": 88.1, "unit": "%"},
      {"measurement": "viability, T/C", "setting": "second compound 1 µM, first compound 1 µM", "result": 89.5, "unit": "%"},
      {"measurement": "viability, T/C", "setting": "second compound 1 µM, first compound 3.16 µM", "result": 63.1, "unit": "%"},
      {"measurement": "viability, T/C", "setting": "second compound 1 µM, first compound 10 µM", "result": 40, "unit": "%"},
      {"measurement": "viability, T/C", "setting": "second compound 3.16 µM, first compound 0.0316 µM", "result": 68.9, "unit": "%"},
      {"measurement": "viability, T/C", "setting": "second compound 3.16 µM, first compound 0.1 µM", "result": 67.5, "unit": "%"},
      {"measurement": "viability, T/C", "setting": "second compound 3.16 µM, first compound 0.316 µM", "result": 69.3, "unit": "%"},
      {"measurement": "viability, T/C", "setting": "second compound 3.16 µM, first compound 1 µM", "result": 74, "unit": "%"},
      {"measurement": "viability, T/C", "setting": "second compound 3.16 µM, first compound 3.16 µM", "result": 47.7, "unit": "%"},
      {"measurement": "viability, T/C", "setting": "second compound 3.16 µM, first compound 10 µM", "result": 30.3, "unit": "%"},
      {"measurement": "viability, T/C", "setting": "second compound 10 µM, first compound 0.0316 µM", "result": 19.5, "unit": "%"},
      {"measurement": "viability, T/C", "setting": "second compound 10 µM, first compound 0.1 µM", "result": 23.6, "unit": "%"},
      {"measurement": "viability, T/C", "setting": "second compound 10 µM, first compound 0.316 µM", "result": 17.3, "unit": "%"},
      {"measurement": "viability, T/C", "setting": "second compound 10 µM, first compound 1 µM", "result": 31.4, "unit": "%"},
      {"measurement": "viability, T/C", "setting": "second compound 10 µM, first compound 3.16 µM", "result": 18.6, "unit": "%"},
      {"measurement": "viability, T/C", "setting": "second compound 10 µM, first compound 10 µM", "result": 4.55, "unit": "%"}
    ]}
  ]
}
